Laboratory results as given in patent US4240957A, “Dipeptide derivatives and their production” (Shionogi & Co., Ltd., priority 1974, dated 1980).

Legend:
Assay type in all cases: in vivo
DS male mice [1] = assay: Taming activity (inhibition of electroshock-induced fighting); settings: for Taming activity ED50: administered 60 minutes prior, inhibition of fighting responses, 5 pairs of mice; for times more potent than diazepam in taming activity: relative to diazepam (Compound No. 5)
Procedure: This test was measured on DS male mice. […] These pairs of mice were selected in the morning and used for drug test in the afternoon. The test compound was administered to both mice of the pairs 60 minutes prior to the experiment. Results were obtained as the mean percentage of inhibition of fighting responses in a group of 5 pairs and shown by ED50 [Tedeschi, et al.: J. Pharmacol Exp. Thev., 125, 28-34 (1959)].

DS male mice [2] = assay: Anti-pentylenetetrazole activity; settings: for Anti-pentylenetetrazol activity, ED50: given orally 60 minutes prior to pentylenetetrazol 125 mg/kg s.c., complete protection against mortality, observed two hours; for times more potent than diazepam in anti-pentylenetetrazol activity: relative to diazepam (Compound No. 5)
From the text: (1) Anti-pentylenetetrazole activity:
The convulsions were disregarded.

DS male mice [3] = assay: Rotarod performance activity; settings: fall from rod within less than 2 minutes; 10 mice per dose
Procedure: (3) Rotarod performance activity:
This test was measured on DS male mice. The mouse was put on a scraped rod of wood, 3 cm in diameter, turning at the rate of five rotations per minute. The mice that could remain on the rod for three or more minutes in successive trials were selected and placed in a group of 10 mice for each dose. If the mouse fell down from the rod within less than 2 minutes, the test compound was considered to be effective. Results were shown by ED50 [Dunham, et al.: J. Am. Pharm. Assoc., 46, 208 (1957)].

[4] = relative to chlordiazepoxide (Compound No. 4)

| Structure (SMILES) | Taming activity ED50 (DS male mice [1]) [mg/kg] | times more potent than diazepam in taming activity (DS male mice [1]) [times] | Anti-pentylenetetrazol activity, ED50 (DS male mice [2]) [mg/kg] | times more potent than diazepam in anti-pentylenetetrazol activity (DS male mice [2]) [times] | Rotarod performance ED50 (DS male mice [3]) [mg/kg] | times more potent than chlordiazepoxide in taming activity (DS male mice [1]; [4]) [times] | times more potent than chlordiazepoxide in anti-pentylenetetrazol activity (DS male mice [2]; [4]) [times] |
| --- | --- | --- | --- | --- | --- | --- | --- |
| CN(C(=O)CNC(=O)CN)c1ccc(Cl)cc1C(=O)c1ccccc1Cl.O [Compound No. 2, 2-o-chlorobenzoyl-4-chloro-N-methyl-N^α -glycyl-glycinanilide hydrate] | 3.0 | 2 to 4 | 0.58 | 2 to 4 | – | – | – |
| CN(C(=O)CNC(=O)CN)c1ccc(Cl)cc1C(=O)c1ccccc1F.Cl [Compound No. 3, 2-o-fluorobenzoyl-4-chloro-N-methyl-N^α -glycyl-glycinanilide hydrochloride] | 1.6 | 2 to 4 | 0.33 | 2 to 4 | 17.0 | – | – |
| CN(C(=O)CNC(=O)CN)c1ccc(Cl)cc1C(=O)c1ccccc1 [Compound No. 1, 2-benzoyl-4-chloro-N-methyl-N^α -glycyl-glycinanilide] | – | – | 1.0 | – | – | 2 to 3 | 2 to 3 |
